# Measured values taken from US20120028045A1, “Processes for the Preparation of Indiplon and Intermediates Thereof” (Glenmark Generics LTD, priority 2009, published 2012).
# How the values were obtained:
# Type in all cases: physicochemical
# [1] = Particle size distribution (laser light scattering, Malvern Mastersizer 2000); details: crystal particles of indiplon
# Description: As used herein “Particle Size Distribution (P.S.D.)” means the cumulative volume size distribution of equivalent spherical diameters as determined by laser diffraction at 1 bar dispersive pressure in Sympatec Helos equipment.
# “Mean particle size distribution, i.e., d (0.5)” correspondingly, means the median of said particle size distribution.
# The particle size can be determined by such techniques as, for example, Malvern light scattering, a laser light scattering technique, etc., while herein, used Malvern Mastersizer 2000. It is noted the notation Dx means that X % of the particles have a diameter less than a specified diameter D. The particle sizes of the Indiplon can be obtained by, for example, any milling, grinding, micronizing or other particle size reduction method known in the art to bring the solid state indiplon any of the foregoing desired particle size range.
# [2] = Bulk density as per USP method I
# [3] = Specific surface area by BET (nitrogen absorption); details: crystal particles of indiplon
# Description: Specific surface area is defined in units of square meters per gram (m^2/g). It is usually measured by nitrogen absorption analysis. In this analysis, nitrogen is absorbed on the surface of the substance. The amount of the absorbed nitrogen (as measured during the absorption or the subsequent desorption process) is related to the surface area via a formula known as the B. ET. formula.
structure (smiles),measurement,setting,value
"CC(=O)N(C)c1cccc(-c2ccnc3c(C(=O)c4cccs4)cnn23)c1 [indiplon, N-methyl-N-[3-[3-(thien-2-ylcarbonyl)pyrazolo[1,5-a]pyrimidin-7-yl]phenyl]acetamide]",Particle size Distribution d(0.1),[1],d(0.1) 4.949 μm
same,Particle size Distribution d(0.9),[1],d(0.9) 24.325 μm
same,Particle size Distribution d(0.5),[1]; median particle size,d(0.5) 11.641 μm
same,"Bulk Density, after tapping (750)","[2]; after tapping (750), USP method I",After tapping (750) = 0.47 g/ml as per USP
same,"Bulk Density, as such",[2]; as such (untapped),As such = 0.24 g/ml
same,Surface area by BET,[3],1.41 m^2/gm
